How the values were obtained:
[1] = Average crystalline domain size and crystallinity by X-ray diffraction; format: physicochemical; settings: comparative particles as received or wet-milled (Table B)
Description: As used herein the term “essentially crystalline” is defined to mean that the particles are at least 90% crystalline as measured using X-ray diffraction techniques.
0.3 g of the drug was dissolved in 6 ml of the organic solvent, which may contain 0.3 g of a stabilizer. The organic solution was injected at 2 degrees C. with vigorous stirring into 30.0 g of the aqueous phase, which may contain a second stabilizer. The solvent was stripped from the resulting slurry, and the slurry freeze dried to yield a powder. […] Average size of the crystalline domains was determined using X-ray diffraction as known by those skilled in the art of particle size measurement, using Jade XRD pattern processing software (v.6).
(§1) Dissolution was monitored for 5 minutes by the loss in turbidity.

[2] = Dissolution by turbidity method (loss in turbidity); format: physicochemical; settings: loss in turbidity monitored for 5 minutes
Description: as §1, §1

Q: Which “Crystalline Domain” value [1] does the source give for `COc1ccc2cc([C@H](C)C(=O)O)ccc2c1` [compound 22, Naproxen] here?
A: 646 Å

Q: With `C#C[C@]1(O)CC[C@H]2[C@@H]3CCC4=Cc5oncc5C[C@]4(C)[C@H]3CC[C@@]21C` [compound 24, Danazol/USP 24] as the molecule, how does the “Percent of Dissolution after 5 min.” value ([2]; Danazol samples: deionized water plus sodium dodecyl sulfate) read?
A: 91%

Q: And the “Crystalline Domain” value [1]?
A: 404 Å

Q: With `NC(=O)N1c2ccccc2C=Cc2ccccc21` [compound 23, Carbamazepine] as the molecule, how does the “Percent of Dissolution after 5 min.” value ([2]; Carbamazepine sample: deionized water) read?
A: 100%

Q: And the “Crystalline Domain” value [1]?
A: 475 Å

— patent publication US20040028746A1, “Crystalline drug particles prepared using a controlled precipitation (recrystallization) process” (priority 2002, published 2004)
